In patent publication US6967196B1, “Sulfonamide compounds and uses thereof” (Bristol-Myers Squibb Company, priority 1999, dated 2005) one finds IC50 data, which are given here for 15 molecules.

pIC50: −log10 of the molar value. Counter-ions that a name gives are not always drawn. Like-named read-outs stand apart in the source and are kept apart here.

The subject of this assay is amyloid β production in transfected H4 (human neuroglioma) cells stably expressing APP constructs. The experiment in a line: In vitro cell-based assay of inhibitors of amyloid β production (ELISA). The conditions noted are these: amyloid β in medium by ELISA. The method, boiled down:
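Sandwich ELISA read-out: Aβ in conditioned medium captured via C-terminal epitope mAb, detected with N-terminus-specific rabbit polyclonal, quantified from a standard curve. Compounds 10-100 μM, ~16 h exposure. Active = ≥50% inhibition vs control without significant cytotoxicity; dose-response follows.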

Where [1] appears, read: transfected H4 cells stably expressing APP, approx. 16 h incubation, read-out: ACTIVITY (IC50, inhibition of amyloid β production).
Where [2] appears, read: Table B, transfected H4 cells stably expressing APP, approximately 16 hours incubation, read-out: ACTIVITY (inhibitory concentration IC50, inhibition of amyloid β production).
Where [3] appears, read: transfected H4 cells stably expressing APP constructs, approximately 16 hours incubation, read-out: ACTIVITY (IC50, inhibition of amyloid β production).
[4] abbreviates: transfected H4 cells stably expressing APP, approximately 16 hours incubation, Table B, read-out: ACTIVITY (IC50, inhibition of amyloid β production).

As to “2-((1R)-1-{[(4-chlorophenyl)sulfonyl]-2,5-difluoroanilino}ethyl)benzyl 2-methoxyethylcarbamate [Example 669]”, the pIC50 under setting [1] is 6.30 to 7.00.
`C[C@H](CCCS(=O)(=O)N(C)C)N(c1cc(F)ccc1F)S(=O)(=O)c1ccc(Cl)cc1` [Example 1206, 4-chloro-N-[2,5-difluorophenyl]-N-[4-[(dimethylamino)sulfonyl]-1(R)-methylbutyl]benzenesulfonamide]: where the note is “Homo sapiens, 16 h, transfected H4 cells stably expressing APP constructs, approximately 16 hours incubation, read-out: ACTIVITY (IC50, inhibition of amyloid β production)”, the pIC50 was at least 7.60.
On to `O=S(=O)(Cc1ccccc1)N(Cc1ccccc1OCCCN1CCCCC1)c1cc(Cl)ccc1Cl` [Example 261, N-(2,5-dichlorophenyl)(phenyl)-N-{2-[3-(1-piperidinyl)propoxy]benzyl}methanesulfonamide Hydrochloride], for which the pIC50 under setting [2] was 7.30 to 7.60.
Take `C[C@H](COC(=O)N(C)CCCn1ccnc1)N(c1cc(Cl)ccc1Cl)S(=O)(=O)c1ccc(Cl)cc1` [Example 1250, 4-Chloro-N-(2,5-dichlorophenyl)-N-[2-[[[N′-[3-(1H-imidazol-1-yl)propyl]-N′-methylamino]carbonyl]oxy]-(R)-1-methylethyl]benzenesulfonamide]: under setting [3], the pIC50 is at least 7.60.
Same read-out and setting: the value for `CC1CN(CCCCC[C@@H](C)N(c2cc(Cl)ccc2F)S(=O)(=O)c2ccc(Cl)cc2)CCS1(=O)=O` (stereo partly drawn) [Example 1274] was at least 7.60.
Take `C[C@H](CCCS(=O)(=O)Cl)N(c1cc(Cl)ccc1CO)S(=O)(=O)c1ccc(Cl)cc1` [Example 12]: the pIC50 under setting [2] is at least 7.60.
Consider `O=S1(=O)CCN(CCCOc2ccccc2CN(c2ccccc2)S(=O)(=O)c2ccc(Cl)cc2)CC1` [Example 492, 4-chloro-N-{2-[3-(1,1-dioxido-4-thiomorpholinyl)propoxy]benzyl}-N-phenylbenzenesulfonamide hydrochloride], for which the pIC50 (Homo sapiens, 16 h, transfected H4 cells stably expressing APP, approximately 16 hours incubation, Table B, read-out: ACTIVITY (IC50, inhibition of amyloid β production)) was 6.30 to 7.00.
As to `O=S(=O)(c1ccc(Cl)cc1)N(Cc1ccccc1OCCCN1CCCCCC1)c1ccccc1` [Example 305, N-{2-[3-(1-azepanyl)propoxy]benzyl}-4-chloro-N-phenylbenzenesulfonamide Hydrochloride], the pIC50 under setting [4] is 7.00 to 7.30.
As for `CCC[C@@H](C)N(Cc1ccccc1OCCCN1CCCCC1)S(=O)(=O)c1ccc(Cl)cc1` [Example 867, 4-chloro-N-[(1R)-1-methylbutyl]-N-{2-[3-(1-piperidinyl)propoxy]benzyl}benzenesulfonamide hydrochloride], under “transfected H4 cells stably expressing APP, approximately 16 hours incubation, hydrochloride, read-out: ACTIVITY (IC50, inhibition of amyloid β production)”, the pIC50 was 6.30 to 7.00.
Turning to `CC(C)[C@H](NC(=O)CCC[C@@H](C)N(c1cc(Cl)ccc1F)S(=O)(=O)c1ccc(Cl)cc1)C(=O)O` [Example 536, (R)-4-Chloro-N-(5-chloro-2-fluorophenyl)-N-[5-[N-(S)-[1-(carboxy)-2-methylpropyl]amino]-1-methyl-5-oxopentyl]benzenesulfonamide], the pIC50 under setting [4] was 6.30 to 7.00.
For the molecule `O=S(=O)(c1ccc(Cl)cc1)N(Cc1ccc2ccccc2c1OCCCN1CCCCC1)c1cc(F)ccc1F` [Example 272, 4-Chloro-N-(2,5-difluorophenyl)-N-({1-[3-(1-piperidinyl)propoxy]-2-naphthylmethyl)benzenesulfonamide Hydrochloride], the pIC50 under setting [4] is 7.30 to 7.60.
As to `C[C@H](CCCCN1CCC(S(C)(=O)=O)C1)N(c1cc(Cl)ccc1Cl)S(=O)(=O)c1ccc(Cl)cc1` (stereo partly drawn) [Example 1112, 4-chloro-N-(2,5-dichlorophenyl)-N-[5-[(3-methylsulfonyl)-1-pyrrolidinyl]-1(R)-methylpentyl]benzenesulfonamide], the pIC50 under setting [3] is 7.30 to 7.60.
On to `COC(=O)[C@H](CC(C)C)NC(=O)CC[C@@H](C)N(c1cc(Cl)ccc1F)S(=O)(=O)c1ccc(Cl)cc1` [Example 538], for which, under setting [4], the pIC50 was 6.30 to 7.00.
On to “N-{3-[2-(1-{[(4-chlorophenyl)sulfonyl]-2,5-difluoroanilino}ethyl)phenoxy]propyl}-N-methyl-4-(trifluoromethyl)benzamide [Example 703]”, for which, under setting [1], the pIC50 was 6.30 to 7.00.
As to `CCCCC(=O)N(C)CCCOc1ccccc1CN(c1cc(F)ccc1F)S(=O)(=O)c1ccc(Cl)cc1` [Example 717, N-{3-[2-({[(4-chlorophenyl)sulfonyl]-2,5-difluoroanilino}methyl)phenoxy]propyl}-N-methylpentamide], the pIC50 under setting [1] is 6.30 to 7.00.
